Common to all, as to assay type: functional, cell-based, Homo sapiens
For assay [1], the system named is A549. Description: In vitro cytotoxic activity against A 549 (non-small cell lung) using SRB (sulforhodamine B) assay.
The subject of assay [2] is HCT-15. Description: In vitro cytotoxic activity against HCT-15 (colon) using SRB (sulforhodamine B) assay.
Assay [3] concerns SK-MEL-2. Description: In vitro cytotoxic activity against SK-MEL-2 (melanoma) using SRB (sulforhodamine B) assay.
The subject of assay [4] is SK-OV-3. Description: In vitro cytotoxic activity against SK-OV-3 (ovarian) using SRB (sulforhodamine B) assay.
Assay [5] deals with XF498. Description: In vitro cytotoxic activity against XF 498 (CNS) using SRB (sulforhodamine B) assay.
The mark [6] stands for this setting: Homo sapiens, A549, read-out: IC50.
Setting [7] is: Homo sapiens, HCT-15, read-out: IC50.
Setting [8] is: Homo sapiens, SK-MEL-2, read-out: IC50.
The mark [9] stands for this setting: Homo sapiens, SK-OV-3, read-out: IC50.
Where [10] appears, read: Homo sapiens, XF498, read-out: IC50.

The record followed here is ChEMBL document CHEMBL1131674, “Synthesis and cytotoxic activities of 6-chloro-7-arylamino-5,8-isoquinolinediones” (Bioorg Med Chem Lett, 1999).

The term IC50 denotes the concentration at which inhibition is half-maximal.

≈ marks a conversion by molar mass, not a printed value.

For the molecule `CCOc1ccc(NC2=C(Cl)C(=O)c3cccnc3C2=O)cc1`, the IC50 in assay [1] (setting [6]) amounted to 0.96 µg/mL (≈ 2.92 µM); in assay [2] (setting [7]), 0.32 µg/mL (≈ 0.973 µM); in assay [3] (setting [8]), 0.34 µg/mL (≈ 1.03 µM); in assay [4] (setting [9]), 0.33 µg/mL (≈ 1 µM); in assay [5] (setting [10]), 0.55 µg/mL (≈ 1.67 µM).
Take `CCOc1ccc(NC2=C(Cl)C(=O)c3ccncc3C2=O)cc1`: the IC50 in assay [1] (setting [6]) came to 0.42 µg/mL (≈ 1.28 µM); in assay [2] (setting [7]), 0.03 µg/mL (≈ 0.0913 µM); in assay [3] (setting [8]), 0.04 µg/mL (≈ 0.122 µM); in assay [4] (setting [9]), 0.34 µg/mL (≈ 1.03 µM); in assay [5] (setting [10]), 0.27 µg/mL (≈ 0.821 µM).
Take `Cc1ccc(NC2=C(Cl)C(=O)c3ccncc3C2=O)cc1`: the IC50 in assay [1] (setting [6]) was determined as 1.22 µg/mL (≈ 4.08 µM); in assay [2] (setting [7]) it was 0.11 µg/mL (≈ 0.368 µM); in assay [3] (setting [8]), 0.17 µg/mL (≈ 0.569 µM); in assay [4] (setting [9]), 1.54 µg/mL (≈ 5.16 µM); in assay [5] (setting [10]) it was 1.06 µg/mL (≈ 3.55 µM).
The corresponding values for `O=C1C(Cl)=C(Nc2ccc(Cl)cc2)C(=O)c2ncccc21` are 5.03 µg/mL (≈ 15.8 µM), 0.34 µg/mL (≈ 1.07 µM), 1.3 µg/mL (≈ 4.07 µM), 1.33 µg/mL (≈ 4.17 µM) and 3.31 µg/mL (≈ 10.4 µM).
In the case of `Cc1ccc(NC2=C(Cl)C(=O)c3cccnc3C2=O)cc1`, the IC50 in assay [1] (setting [6]) stood at 1.14 µg/mL (≈ 3.82 µM); in assay [2] (setting [7]), 0.33 µg/mL (≈ 1.1 µM); in assay [3] (setting [8]), 0.42 µg/mL (≈ 1.41 µM); in assay [4] (setting [9]), 1.27 µg/mL (≈ 4.25 µM); in assay [5] (setting [10]), 1.26 µg/mL (≈ 4.22 µM).
Regarding `O=C1/C(=N/c2ccc(O)cc2)C(Cl)=C(O)c2cccnc21`, the IC50 in assay [1] (setting [6]) worked out at 1.56 µg/mL (≈ 5.19 µM); in assay [2] (setting [7]), 0.86 µg/mL (≈ 2.86 µM); in assay [3] (setting [8]) it was 0.47 µg/mL (≈ 1.56 µM); in assay [4] (setting [9]), 1.27 µg/mL (≈ 4.22 µM); in assay [5] (setting [10]), 0.97 µg/mL (≈ 3.23 µM).
As to `N#Cc1ccc(NC2=C(Cl)C(=O)c3ccncc3C2=O)cc1`, the IC50 in assay [1] (setting [6]) amounted to 0.8 µg/mL (≈ 2.58 µM); in assay [2] (setting [7]), 0.13 µg/mL (≈ 0.42 µM); in assay [3] (setting [8]) it was 0.22 µg/mL (≈ 0.71 µM); in assay [4] (setting [9]), 0.21 µg/mL (≈ 0.678 µM); in assay [5] (setting [10]), 0.3 µg/mL (≈ 0.969 µM).
The corresponding values for `O=C1C(Cl)=C(Nc2ccc(CCO)cc2)C(=O)c2cnccc21` are 0.61 µg/mL (≈ 1.86 µM), 0.18 µg/mL (≈ 0.548 µM), 0.08 µg/mL (≈ 0.243 µM), 0.63 µg/mL (≈ 1.92 µM) and 0.06 µg/mL (≈ 0.183 µM).
Consider `O=C1C(Cl)=C(Nc2ccccc2)C(=O)c2cnccc21`, for which the IC50 in assay [1] (setting [6]) stood at 1.28 µg/mL (≈ 4.5 µM); in assay [2] (setting [7]), 0.1 µg/mL (≈ 0.351 µM); in assay [3] (setting [8]), 0.52 µg/mL (≈ 1.83 µM); in assay [4] (setting [9]) it was 0.86 µg/mL (≈ 3.02 µM); in assay [5] (setting [10]), 0.96 µg/mL (≈ 3.37 µM).
As to `O=C1C(Cl)=C(Nc2ccc(Br)cc2)C(=O)c2ncccc21`, the IC50 in assay [1] (setting [6]) turned out to be 4.28 µg/mL (≈ 11.8 µM); in assay [2] (setting [7]), 0.34 µg/mL (≈ 0.935 µM); in assay [3] (setting [8]) it was 1.26 µg/mL (≈ 3.47 µM); in assay [4] (setting [9]), 0.92 µg/mL (≈ 2.53 µM); in assay [5] (setting [10]) it was 2.83 µg/mL (≈ 7.78 µM).
The corresponding values for `O=C1C(Cl)=C(Nc2ccccc2)C(=O)c2ncccc21` are 2.3 µg/mL (≈ 8.08 µM), 0.74 µg/mL (≈ 2.6 µM), 1.42 µg/mL (≈ 4.99 µM), 1.34 µg/mL (≈ 4.71 µM) and 1.33 µg/mL (≈ 4.67 µM).
For the molecule `O=C1C(Cl)=C(Nc2ccc(Cl)cc2)C(=O)c2cnccc21`, the IC50 in assay [1] (setting [6]) is 1.27 µg/mL (≈ 3.98 µM); in assay [2] (setting [7]), 0.31 µg/mL (≈ 0.971 µM); in assay [3] (setting [8]) it was 1.22 µg/mL (≈ 3.82 µM); in assay [4] (setting [9]) it was 1.86 µg/mL (≈ 5.83 µM); in assay [5] (setting [10]) it was 1.54 µg/mL (≈ 4.83 µM).
Turning to `COc1ccc(NC2=C(Cl)C(=O)c3cccnc3C2=O)cc1`, the IC50 in assay [1] (setting [6]) is 1.27 µg/mL (≈ 4.04 µM); in assay [2] (setting [7]), 0.33 µg/mL (≈ 1.05 µM); in assay [3] (setting [8]) it was 1.33 µg/mL (≈ 4.23 µM); in assay [4] (setting [9]), 1.3 µg/mL (≈ 4.13 µM); in assay [5] (setting [10]), 1.26 µg/mL (≈ 4 µM).
Turning to `O=C1C(Cl)=C(Nc2ccc(I)cc2)C(=O)c2cnccc21`, the IC50 in assay [1] (setting [6]) came to 1.96 µg/mL (≈ 4.77 µM); in assay [2] (setting [7]), 0.1 µg/mL (≈ 0.244 µM); in assay [3] (setting [8]) it was 0.23 µg/mL (≈ 0.56 µM); in assay [4] (setting [9]) it was 0.29 µg/mL (≈ 0.706 µM); in assay [5] (setting [10]), 0.22 µg/mL (≈ 0.536 µM).
The corresponding values for `O=C1C(Cl)=C(Nc2ccc(F)cc2)C(=O)c2cnccc21` are 0.66 µg/mL (≈ 2.18 µM), 0.07 µg/mL (≈ 0.231 µM), 0.13 µg/mL (≈ 0.429 µM), 0.17 µg/mL (≈ 0.562 µM) and 0.49 µg/mL (≈ 1.62 µM).
For the molecule `O=C1C(Cl)=C(Nc2ccc(Br)cc2)C(=O)c2cnccc21`, the IC50 worked out at 1.1 µg/mL (≈ 3.03 µM) in assay [1] (setting [6]); 0.18 µg/mL (≈ 0.495 µM) in assay [2] (setting [7]); 0.66 µg/mL (≈ 1.82 µM) in assay [3] (setting [8]); 0.97 µg/mL (≈ 2.67 µM) in assay [4] (setting [9]); 1.28 µg/mL (≈ 3.52 µM) in assay [5] (setting [10]).
Regarding `N#Cc1ccc(NC2=C(Cl)C(=O)c3cccnc3C2=O)cc1`, the IC50 in assay [1] (setting [6]) is 1.7 µg/mL (≈ 5.49 µM); in assay [2] (setting [7]), 1.45 µg/mL (≈ 4.68 µM); in assay [3] (setting [8]), 0.6 µg/mL (≈ 1.94 µM); in assay [4] (setting [9]) it was 0.55 µg/mL (≈ 1.78 µM); in assay [5] (setting [10]), 1.47 µg/mL (≈ 4.75 µM).
As to `O=C1C(Cl)=C(Nc2ccc(I)cc2)C(=O)c2ncccc21`, the IC50 in assay [1] (setting [6]) was 4.29 µg/mL (≈ 10.4 µM); in assay [2] (setting [7]) it was 1.27 µg/mL (≈ 3.09 µM); in assay [3] (setting [8]) it was 3.3 µg/mL (≈ 8.04 µM); in assay [4] (setting [9]) it was 1.62 µg/mL (≈ 3.95 µM); in assay [5] (setting [10]), 3.61 µg/mL (≈ 8.79 µM).
Consider `O=C1/C(=N/c2ccc(O)cc2)C(Cl)=C(O)c2ccncc21`, for which the IC50 was 0.36 µg/mL (≈ 1.2 µM) in assay [1] (setting [6]); 0.05 µg/mL (≈ 0.166 µM) in assay [2] (setting [7]); 0.06 µg/mL (≈ 0.2 µM) in assay [3] (setting [8]); 0.3 µg/mL (≈ 0.998 µM) in assay [4] (setting [9]); 0.32 µg/mL (≈ 1.06 µM) in assay [5] (setting [10]).
On to `COc1ccc(NC2=C(Cl)C(=O)c3ccncc3C2=O)cc1`, for which the IC50 in assay [1] (setting [6]) is 0.5 µg/mL (≈ 1.59 µM); in assay [2] (setting [7]) it was 0.02 µg/mL (≈ 0.0635 µM); in assay [3] (setting [8]) it was 0.02 µg/mL (≈ 0.0635 µM); in assay [4] (setting [9]), 0.28 µg/mL (≈ 0.89 µM); in assay [5] (setting [10]) it was 0.31 µg/mL (≈ 0.985 µM).
Consider `O=C1C(Cl)=C(Nc2ccc(F)cc2)C(=O)c2ncccc21`, for which the IC50 in assay [1] (setting [6]) was found to be 1.25 µg/mL (≈ 4.13 µM); in assay [2] (setting [7]), 0.18 µg/mL (≈ 0.595 µM); in assay [3] (setting [8]), 1.39 µg/mL (≈ 4.59 µM); in assay [4] (setting [9]), 0.5 µg/mL (≈ 1.65 µM); in assay [5] (setting [10]), 0.36 µg/mL (≈ 1.19 µM).
For `CCc1ccc(NC2=C(Cl)C(=O)c3cccnc3C2=O)cc1`, the IC50 in assay [1] (setting [6]) was 1.35 µg/mL (≈ 4.32 µM); in assay [2] (setting [7]), 1.39 µg/mL (≈ 4.44 µM); in assay [3] (setting [8]), 1.97 µg/mL (≈ 6.3 µM); in assay [4] (setting [9]), 1.35 µg/mL (≈ 4.32 µM); in assay [5] (setting [10]), 0.66 µg/mL (≈ 2.11 µM).
Take `CCc1ccc(NC2=C(Cl)C(=O)c3ccncc3C2=O)cc1`: the IC50 was determined as 0.62 µg/mL (≈ 1.98 µM) in assay [1] (setting [6]); 0.05 µg/mL (≈ 0.16 µM) in assay [2] (setting [7]); 0.07 µg/mL (≈ 0.224 µM) in assay [3] (setting [8]); 0.34 µg/mL (≈ 1.09 µM) in assay [4] (setting [9]); 0.33 µg/mL (≈ 1.06 µM) in assay [5] (setting [10]).
Consider `O=C1C(Cl)=C(Nc2ccc(CCO)cc2)C(=O)c2ncccc21`, for which the IC50 came out at 1.11 µg/mL (≈ 3.38 µM) in assay [1] (setting [6]); 0.48 µg/mL (≈ 1.46 µM) in assay [2] (setting [7]); 0.36 µg/mL (≈ 1.1 µM) in assay [3] (setting [8]); 0.42 µg/mL (≈ 1.28 µM) in assay [4] (setting [9]); 0.52 µg/mL (≈ 1.58 µM) in assay [5] (setting [10]).
`COC1=C(N)C(=O)c2nc(-c3nc(C(=O)O)c(C)c(-c4ccc(OC)c(OC)c4O)c3N)ccc2C1=O` [STREPTONIGRIN]: the IC50 was determined as 0.33 µg/mL (≈ 0.652 µM) in assay [1] (setting [6]); 0.02 µg/mL (≈ 0.0395 µM) in assay [2] (setting [7]); 0.02 µg/mL (≈ 0.0395 µM) in assay [3] (setting [8]); 0.28 µg/mL (≈ 0.553 µM) in assay [4] (setting [9]); 0.31 µg/mL (≈ 0.612 µM) in assay [5] (setting [10]).
For the molecule CISPLATIN, the IC50 in assay [1] (a549) turned out to be 1.8 µg/mL; in assay [2] (hct-15), 2.9 µg/mL; in assay [3] (sk-mel-2), 1.38 µg/mL; in assay [4] (sk-ov-3), 2.07 µg/mL; in assay [5] (xf498), 2.74 µg/mL.
